According to patent publication US20250204535A1, “Rodenticide” (priority 2022, published 2025):
Where no end group is shown, it is not given here.

Key:
Caco-2 cells = assay: Caco-2 permeability assay (bi-directional); settings: for Papp Rep 1 / Papp Rep 2 / Papp Mean: 120 min, pH 7.4
Method: (§1) Cells were seeded on to Millipore Multiscreen Transwell plates at 1×10^5 cells/cm^2. The cells were cultured in DMEM and media was changed every two or three days. On day 20, the permeability study was performed. […] On the day of the assay, the monolayers were prepared by rinsing both basolateral and apical surfaces twice with Hanks Balanced Salt Solution (HBSS) at the desired pH warmed to 37° C. Cells were then incubated with HBSS at the desired pH in both apical and basolateral compartments for 40 min to stabilise physiological parameters.
(§2) The fluorescent integrity marker lucifer yellow was also included in the dosing solution. Analytical standards were prepared from test compound water dilutions and transferred to buffer, maintaining a ≤1% v/v water concentration. Assay buffer was composed of supplemented HBSS pH 7.4.
(§3) For assessment of apical to basolateral (A2B) permeability, HBSS was removed from the apical compartment and replaced with test compound dosing solution. The apical compartment insert was then placed into a companion plate containing fresh buffer (containing ≤1% v/v Water). For assessment of B2A permeability, HBSS was removed from the companion plate and replaced with test compound dosing solution. Fresh buffer (containing ≤1% v/v Water) was added to the apical compartment insert, which was then placed into the companion plate.
(§4) At 120 min, the apical compartment inserts and the companion plates were separated, and apical and basolateral samples diluted for analysis. Test compound permeability was assessed in duplicate. Compounds of known permeability characteristics were run as controls on each assay plate.
(§5) Test and control compounds were quantified by LC-MS/MS cassette analysis using a 7-point calibration with appropriate dilution of the samples. Cyprotex generic analytical conditions were used. The starting concentration (CO) was determined from the dosing solution and the experimental recovery calculated from CO and both apical and basolateral compartment concentrations.
(§6) The integrity of the polarised cell monolayers throughout the experiment was checked by monitoring lucifer yellow permeation using fluorometric analysis. Permeation of this paracellular marker is low if monolayers have not been damaged. […] If this was not the case, then the result from the affected monolayer was excluded.
(§7) The determined concentration (nM≡pmol/mL) of each test sample receiver well is multiplied by the volume of the receiver compartment (apical=0.09 mL, basolateral=0.210 mL) to calculate the amount (pmol) of probe substrate permeating the monolayer.
(§8) Where dQ/dt is the rate of permeation of the drug across the cells, C0 is the donor compartment concentration at time zero and A is the area of the cell monolayer. C0 was obtained from analysis of the dosing solution.
(§9) An efflux ratio (ER) was calculated from mean A to B and B to A data. This is derived from:
(§10) Percentage recovery (mass balance) of the test compound or positive control substrate was calculated by dividing the sum of the amount (pmol) in the receiver and donor compartments post-incubation by the amount in the initial donor solution at time zero (C0) and expressing as a percentage.
(§11) The insert was inserted into the well of a plate to form an Apical chamber (above cells) and basolateral chamber (below cells), with a permeable membrane between the two layers. Compound was then added to either the apical or basolateral chamber and the passage of it monitored into the other chamber. Transfer of the test compound from the apical to basolateral chamber was indicative of cellular uptake, simulating transition of the compound from the intestinal lumen to the bloodstream by uptake receptors (Direction A). […] An Efflux ratio was then calculated from the values obtained for A2B and B2A transmission.

[1] = Caco-2 permeability assay (bi-directional); settings: human; for recovery at 120 min / recovery at 120 min, 100 μM: Caco-2, pH 7.4, Mean % Recovery; for recovery at 120 min: positive control
Method: as §1, §2, §3, §4, §5, §6, §7, §8, §9, §10, §11

[2] = known characteristic of control compound; cited from earlier work
[3] = tested on: Neonatal rat cardiomyocytes; assay: Screening synthetic peptides for alterations to rat cardiomyocyte beat rates; type: cell-based
Method: (§12) The baseline beat rate of neonatal rat and human IPSC-derived cardiomyocytes to be treated with the three synthetic fractions were determined by video microscopy of each well in triplicate using a microscope camera. Average beats/min were calculated from the triplicate readings of three separate wells (n=9). Aliquots of each peptide were taken to treat neonatal rat cardiomyocyte cells at doses of 100, 10, 1 and 0.1 μg/ml. Cells were returned to a humidified incubator at 37° C., 5% CO2 for 2 h. After 2 h the beat rate of the treated cardiomyocyte cells was reassessed using the same method used to obtain the pre-dosing beat data. This process was repeated 24 h after the addition of the synthetic peptides.

[4] = tested on: Neonatal rat cardiomyocytes; assay: Screening synthetic peptides for thermal stability (rat cardiomyocyte beat rate after heating at 100° C.); type: cell-based; settings: peptide heated to 100° C.
Method: Thermal stability of the three designed synthetics peptides was investigated. The baseline beat rate of neonatal rat cardiomyocytes to be treated with the synthetic fractions were determined by video microscopy of each well in triplicate using a microscope camera. Average beats/min were calculated from the triplicate readings of three separate wells (n=9). Aliquots of each peptide were heated in a heat block at 100° C. before being used to treat rodent cardiomyocyte cells at doses of 100, 10, 1 and 0.1 μg/ml. Cells were returned to the incubator at 37° C., 5% CO2 for 2 h. After 2 h the beat rate of the treated cardiomyocyte cells was reassessed using the same method used to obtain the pre-dosing beat data. This process was repeated 24 h after the addition of the synthetic peptides. The data of the fold changes in cardiomyocyte beat rate following treatment with the heated synthetic fractions were compared to previously obtains fold-changes in beat rate of the unheated synthetic peptides to assess their thermal stability.

[5] = tested on: Human IPSC-derived cardiomyocytes; assay: Screening synthetic peptides for alterations to human IPSC-derived cardiomyocyte beat rates; type: cell-based; settings: 2 h; dose not stated in the sentence (no increase at 0.1, 1 and 10 μg/ml)
Method: as §12

Cc1cc(=O)n(-c2ccccc2)n1C [Antipyrine, antipyrine]
Papp Rep 1 (Caco-2 cells; A2B, positive control): 47.2 ×10^−6 cms^−1
Papp Rep 2 (Caco-2 cells; A2B, positive control): 46.9 ×10^−6 cms^−1
Papp Rep 1 (Caco-2 cells; B2A, positive control): 38.0 ×10^−6 cms^−1
Papp Rep 2 (Caco-2 cells; B2A, positive control): 41.1 ×10^−6 cms^−1
Papp A→B at 120 min ([1]; Caco-2, pH 7.4): 47.1 ×10⁻⁶ cm/s
Papp B→A at 120 min ([1]; Caco-2, pH 7.4): 39.6 ×10⁻⁶ cm/s
efflux ratio at 120 min ([1]; Caco-2, pH 7.4): 0.84
recovery at 120 min ([1]; A2B): 90.5%
recovery at 120 min ([1]; B2A): 87.8%
human absorption [2]: 97%

LKCHKLIPIAWKTK [Synthetic peptide 3]
fold-increases to beat rate, rat cardiomyocytes ([3]; 100 μg/ml, 2 h): three-fold
peak increases in rat neonatal cardiomyocyte beat rates ([3]; peak over 0.1-100 μg/ml): 3 fold
increases to beat rate, rat cardiomyocytes ([3]; three lower tested concentrations, 2 h): around two-fold
maximum fold-increase to beat rate following heating [4]: 2.5 fold

LKCHKLVPPVWKT [Synthetic peptide 1]
increase to the beat rate of human cardiomyocytes over pre-dosing beat rate [5]: 1.5 fold
toxicity to the Caco-2 cells (lucifer yellow monolayer integrity) (Caco-2 cells; 100 μM): not observed
transporter substrate assessment from the efflux ratio (Caco-2 cells; 100 μM, efflux ratio 0.137): not a substrate for efflux transporters but could be a possible substrate for uptake transporters
Papp Mean (Caco-2 cells; A2B, 100 μM): 4.60 ×10^−6 cms^−1
Papp Rep 1 (Caco-2 cells; A2B, 100 μM): 6.48 ×10^−6 cms^−1
Papp Rep 2 (Caco-2 cells; A2B, 100 μM): 2.73 ×10^−6 cms^−1
Papp Mean (Caco-2 cells; B2A, 100 μM): 0.633 ×10^−6 cms^−1
Papp Rep 1 (Caco-2 cells; B2A, 100 μM): 0.681 ×10^−6 cms^−1
Papp Rep 2 (Caco-2 cells; B2A, 100 μM): 0.584 ×10^−6 cms^−1
efflux ratio at 120 min, 100 μM ([1]; Caco-2, pH 7.4): 0.137
recovery at 120 min, 100 μM ([1]; A2B): 45.5%
recovery at 120 min, 100 μM ([1]; B2A): 96.6%
